Assays:
[1] = test system: primary neonatal fibroblast cells; test: MTT assay, cytotoxicity of ergothioneine; type: cell-based, human; settings: all concentrations tested (0.04, 0.1, 0.3, and 1.0 mg/ml); 72 hours and one week; with and without 10 μM H2O2
Description: (§1) Primary cultures of human neonatal dermal fibroblasts (ATCC® PCS-201-010™) were established under standard culture conditions. Cells were seeded at 3×10^3 cells/cm^2 and were grown and maintained in Fibroblast Medium (Innoprot).
The MTT assay is a colorimetric assay that uses a yellow tetrazolium salt (3-(4,5-dimethylthiazol-2-yl)-2,5-diphenyltetrazolium bromide, or MTT) to measure metabolic activity of cells as a proxy for cell viability. MTT reduction rate is an indicator of the functional integrity of the mitochondria and as a result, of cellular viability. To determine the cytotoxicity of ergothioneine on primary neonatal fibroblast cells, the cells were seeded in 96 well plates (Nunc) at 0.35×10^4 cells/plate and 0.5×10^4 cells/plate for 72 hours and 1-week treatment. After 24 hours from seeding, the cells were washed once with phosphate-buffered saline (PBS) and treated with the respective compounds in cell culture media. Ergothioneine was dissolved in dimethyl sulfoxide (DMSO). […] Each condition was tested in triplicates with and without 10 μM H2O2. For positive and negative controls, 8 mM methyl methane sulfonate (MMS) and DMSO 100% were used, respectively. […] Absorbance was measured using an Envision multiplate reader at a wavelength of 570 nm.
The percentage of cell death was calculated using the following equation: […]

[2] = test system: neonatal human fibroblast cells; test: Proliferative analysis (population doubling, growth curves); type: cell-based
Description: (§2) Primary cultures of neonatal human fibroblast cells were established. Cells were seeded at 5×10^3 cells/cm^2), in Fibroblast Medium (Innoprot). Media was renewed every 2 to 3 days and cells were passaged at sub-confluence (70-80%) every 7 days. Cells were expanded during eight weeks under standard and oxidative (10 μM H2O2) cell culture condition as described previously. Different concentrations of ergothioneine (0.04, 0.3, 0.1, and 1.0 mg/ml) or vehicle control were added to the treated or control cells, respectively. Treatment dilutions were prepared fresh in each passage with fresh media. Cell growth was monitored for each condition by counting cell numbers at each passage using a Countess™ cell counter (Invitrogen). Population doubling (PD) was calculated with the formula PD=3.322(Log(Cf)−Log (Ci))+X (where, Cf: Final concentration; Ci: initial concentration; X: PD last passage). One PD is equivalent to one round of cell replication.
(§3) Each treatment was tested in triplicate and in different plates. Each plate contained a control sample. Frozen vials were obtained at different time points for analysis of relative telomerase activity and telomere length.

[3] = ingested; rats; cited from earlier work
[4] = test system: primary neonatal fibroblast cells; test: Morphological analysis through optical microscopy visualization; type: cell-based, human; settings: concentrations of up to 1.0 mg/ml
telomerase = test: Relative telomerase activity (Q-TRAP); type: cell-based, human
Description: The quantitative polymerase chain reaction (PCR)-based telomeric repeat amplification protocol (Q-TRAP) is a sensitive and accurate PCR-based assay that enables the measurement of telomerase activity. Cellular pellets from neonatal fibroblast cells were lysed using the CHAPS (3-cholamidopropyl dimethylammonio 1-propanesulfonate) lysis buffer for protein extraction. Samples were stored at 4° C. and were used within 24 hours. Protein quantification was performed for each sample using Biorad protein assay (Bio-Rad Kit 50000002). A minimum of 0.3 mg/ml protein concentration was required to proceed with the analysis of the samples. Telomerase protein extracts are then incubated at 27° C. for 30 min to allow the telomerase in the protein extracts to elongate the TS primer by adding TTAGGG repeat sequences. Following the enzymatic reaction, telomerase extension products are then amplified and quantified by real-time qPCR using SYBR Green (a green fluorescent cyanine dye). PCR was initiated at 95° C. for 10 min, followed by a 40-cycle amplification (95° C. for 15 s, 60° C. for 60 s) and a melt curve stage step. Reactions were monitored and analyzed with QuantStudio 5 (Applied Biosystems). Telomerase activity in cell lines or samples is calculated based on the threshold cycle (Ct). All samples were run in triplicate.
The telomerase-positive standard dilution series is plotted against the telomere protein concentration (r^2>0.9) as a standard curve of Ct values. The standard curve is generated by graphing threshold cycles (Ct values) of HeLa cell line standards against log of 1000, 333, 111, 37.03, 12.34, 4.11, 1.37 and 0.45 ng of protein (whole cell extract).

[5] = test system: human neonatal dermal fibroblasts; test: Telomere length measurement by Telomere Analysis Technology (TAT, HT Q-FISH); type: cell-based; settings: for proportion of short telomeres (<3 kbp): control 8.1±0.6
Description: as §1, §2, §3
All telomere length measurements were performed using Life Length's proprietary Telomere Analysis Technology (TAT®). TAT® measures telomere length using a high-throughput (HT) Q-FISH (quantitative fluorescent in situ hybridization) technique as previously described. This method is based on a quantitative fluorescence in-situ hybridization method modified for measuring individual chromosomes of cells in interphase. In brief, telomeres are hybridized with a fluorescent Peptide Nucleic Acid probe (PNA) that recognizes three telomere repeats (sequence: Alexa488-OO-CCCTAACCCTAACCCTAA, purchased from Panagene). The images of the nuclei and telomeres are captured by a high-content screen system. The intensity of the fluorescent signal from the telomeric PNA probes that hybridize to a given telomere is proportional to the length of that telomere. The intensities of fluorescence are translated to base pairs (bp) through a standard regression curve which is generated using control cell lines with known telomere length. TAT® not only measures telomere length in absolute base pair units, it also provides an assessment of the distribution, 50th and 20th percentiles of telomere length and the percent of short telomeres, allowing for a more comprehensive analysis of each sample. All samples are run in quintuplicate.
Results obtained from each treatment and at each time point were compared with the appropriate control group using Student's t test (independent samples t-test).

[6] = humans, supplementation for 7 days, cited from earlier work

In the case of `C[N+](C)(C)[C@@H](Cc1c[nH]c(=S)[nH]1)C(=O)[O-]` [ergothioneine], the cell death [1] is reported as less than 20%, the “proliferative capacity vs control” value ([2]; oxidative culture conditions (10 μM H2O2), 1.0 or 0.3 mg/ml, after Week 4) is reported as “increase in their proliferative capacity” and the “proliferative capacity vs control” value ([2]; standard culture conditions, 0.04-1.0 mg/ml, 8 weeks) is reported as “no differences”. For the same compound, the whole-body half-life [3] was 1 month, the “deleterious effects by morphological analysis” value [4] was “did not produce any deleterious effects” and the “telomerase activity vs control cells” value (telomerase; 6 hours, all dose levels) was “significantly lower”. The “telomerase activity, higher compared with control cells” value (telomerase; 24 hours, all dose levels, p<0.05) was 50-90%, the “telomerase activity vs control” value (telomerase; 48 hours, statistically significant only for 0.04 mg/ml and 1.0 mg/ml) was “still elevated” and the “telomerase activity vs control” value (telomerase; 72 hours) was “not significantly different”. For the same compound, the “effect on telomeres (FIG. 7D)” value ([5]; dose of 0.3 mg/ml) was “telomere lengthening”, the “median telomere length vs control” value ([5]; oxidative conditions (10 μM H2O2), Week 4, 0.1 or 1.0 mg/ml, p<0.05) was “higher median telomere length” and the median telomere length ([5]; oxidative conditions (10 μM H2O2), Week 8, 0.04 mg/ml, control 8725±94) was 9015±112 bp. The median telomere length ([5]; oxidative conditions (10 μM H2O2), Week 8, 0.1 mg/ml, control 8725±94) was 8794±212 bp, the median telomere length ([5]; oxidative conditions (10 μM H2O2), Week 8, 0.3 mg/ml, control 8725±94 bp, in bp) was 9068±24 and the median telomere length ([5]; oxidative conditions (10 μM H2O2), Week 8, 1.0 mg/ml, control 8725±94) was 8997±171 bp. For the same compound, the “20th percentile telomere length vs control” value ([5]; oxidative conditions, Week 4, 0.1, 0.3, or 1.0 mg/ml, p<0.05) was “greater telomere length”, the “reduction of telomere shortening rate” value ([5]; oxidative conditions, Week 4, all concentrations, significant for 0.04, 0.1 and 1.0 mg/ml) was 27-52% and the “percentage of short telomeres (<3 kbp) vs control” value ([5]; oxidative conditions, Week 4 and Week 8, all concentrations) was “reduced the percentage of short telomeres”. The “20th percentile telomere length vs control” value ([5]; oxidative conditions, Week 8, all concentrations) was “significant increases”, the “telomere shortening rate vs control” value ([5]; oxidative conditions, Week 8, did not reach statistical significance) was “appeared to be lower” and the “20th percentile telomere length vs control” value ([5]; standard conditions, Week 4, 0.3 mg/ml or 1.0 mg/ml) was “greater”. The “proportion of short telomeres (<3 kbp)” value ([5]; standard conditions, Week 4, 0.3 mg/ml) was 7.3±1.1%, the median telomere length ([5]; standard conditions, Week 4, 0.3 mg/ml, control 9378±107) was 9637±340 bp and the “proportion of short telomeres (<3 kbp)” value ([5]; standard conditions, Week 4, 1.0 mg/ml) was 6.8±1.0%. For the same compound, the median telomere length ([5]; standard conditions, Week 4, 1.0 mg/ml, control 9378±107) was 9745±206 bp, the “telomere shortening rate vs control” value ([5]; standard conditions, Week 4, 1.0 mg/ml, p=0.09) was “trend for decreased telomere shortening rate” and the “telomere shortening rate vs control” value ([5]; standard conditions, Week 4, 0.1 or 0.3 mg/ml, normalized by population doublings) was “significantly lower”. The “protective effects on telomeres seen at Week 4” value ([5]; standard conditions, Week 8) was “no longer present”, the “concentration in whole blood” value ([6]; approximately) was 30 to 40 µM and the concentration in plasma [6] was “approximately 3 μM”.
